Test results taken from patent publication US11780845B2 (Relay Therapeutics, Inc., priority 2019, dated 2023).

Columns and labels:
SNU-16 = experiment: Cell SNU-16 assay; assay type: cell-based; details: Homo sapiens, SNU-16, SNU-16 cells
FGFR2 = FGFR2 (Homo sapiens (Human), UniProt P21802); experiment: Biochemical FGFR2 Caliper assay
FGFR2, sequence (P21802 22-821): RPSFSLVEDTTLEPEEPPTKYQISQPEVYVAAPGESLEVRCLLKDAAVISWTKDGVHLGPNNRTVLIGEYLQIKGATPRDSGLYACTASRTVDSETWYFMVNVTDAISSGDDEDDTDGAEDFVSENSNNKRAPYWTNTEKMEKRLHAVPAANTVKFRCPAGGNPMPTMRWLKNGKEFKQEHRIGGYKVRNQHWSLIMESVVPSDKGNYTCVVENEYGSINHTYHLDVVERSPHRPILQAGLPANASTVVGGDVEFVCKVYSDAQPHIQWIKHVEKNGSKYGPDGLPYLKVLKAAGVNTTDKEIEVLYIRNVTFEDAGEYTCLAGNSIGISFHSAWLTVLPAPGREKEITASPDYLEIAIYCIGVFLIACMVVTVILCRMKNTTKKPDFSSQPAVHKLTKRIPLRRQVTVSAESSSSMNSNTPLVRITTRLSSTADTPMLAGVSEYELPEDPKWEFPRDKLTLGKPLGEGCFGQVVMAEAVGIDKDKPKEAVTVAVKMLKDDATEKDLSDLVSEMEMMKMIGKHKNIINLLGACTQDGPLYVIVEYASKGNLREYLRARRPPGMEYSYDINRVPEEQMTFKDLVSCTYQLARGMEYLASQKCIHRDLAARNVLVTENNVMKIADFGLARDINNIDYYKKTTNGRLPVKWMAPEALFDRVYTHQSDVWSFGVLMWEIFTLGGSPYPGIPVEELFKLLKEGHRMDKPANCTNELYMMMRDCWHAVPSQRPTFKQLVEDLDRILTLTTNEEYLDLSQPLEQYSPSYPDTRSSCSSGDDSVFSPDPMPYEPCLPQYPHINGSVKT

SMILES	IC50 (SNU-16)	IC50 (FGFR2)
C=CS(=O)(=O)N1CC[C@H](c2c(-c3ccc(C(=O)N4CCCC4)cc3)c3c(N)ncnc3n2C)C1 (single isomer, unassigned) [Example 863]	0.1 to 0.25 µM	0.25 to 1 µM
C=CS(=O)(=O)N1CC[C@@H](c2c(-c3ccc(C(=O)N4CCCC4)cc3)c3c(N)ncnc3n2C)C1 (single isomer, unassigned) [Example 864]	0.1 to 0.25 µM	< 0.1 µM
C=C(C)C(=O)Nc1ccc(-c2nn3ccnc(N)c3c2C2=CC[C@@H](C(=O)N3CCCC3)CC2)cc1 (single isomer, unassigned) [Example 867]	≤ 0.1 µM	< 0.1 µM
C=C(C)C(=O)Nc1ccc(-c2nn3ccnc(N)c3c2C2=CC[C@H](C(=O)N3CCCC3)CC2)cc1 (single isomer, unassigned) [Example 869]	0.25 to 1 µM	1 to 100 µM
C=CC(=O)N1CC=C(c2c(C3=CC[C@H](C(=O)N4CCCC4)CC3)c3c(N)ncnc3n2C)C1 (single isomer, unassigned) [Example 871]	0.25 to 1 µM	0.25 to 1 µM
C=CC(=O)N1CC=C(c2c(C3=CC[C@@H](C(=O)N4CCCC4)CC3)c3c(N)ncnc3n2C)C1 (single isomer, unassigned) [Example 872]	0.1 to 0.25 µM	0.1 to 0.25 µM
C=CC(=O)N1CC[C@H](c2c(C3=CC[C@H](C(=O)N4CCCC4)CC3)c3c(N)ncnc3n2C)C1 (single isomer, unassigned) [Example 873]	0.25 to 1 µM	1 to 100 µM
C=CC(=O)N1CC[C@H](c2c(C3=CC[C@@H](C(=O)N4CCCC4)CC3)c3c(N)ncnc3n2C)C1 (single isomer, unassigned) [Example 874]	0.1 to 0.25 µM	0.25 to 1 µM
Cc1ccnc(Oc2ccc(-c3c([C@@H]4CCN(C(=O)CCl)C4)n(C)c4ncnc(N)c34)cc2)n1 (single isomer, unassigned) [Example 875]	0.25 to 1 µM	0.25 to 1 µM
Cc1ccnc(Oc2ccc(-c3c([C@H]4CCN(C(=O)CCl)C4)n(C)c4ncnc(N)c34)cc2)n1 (single isomer, unassigned) [Example 876]	≤ 0.1 µM	< 0.1 µM
C=C(C)C(=O)Nc1ccc(-c2c(C3=C(F)C[C@@H](C(=O)N4CCCC4)CC3)c3c(N)ncnc3n2C)cc1 (single isomer, unassigned) [Example 883]	1 to 100 µM	1 to 100 µM
C=CC(=O)N1C[C@@H](c2c(-c3ccc(C(=O)N4CCCCC4)cc3)c3c(N)ncnc3n2C)C[C@@H]1C (single isomer, unassigned) [Example 884]	0.1 to 0.25 µM	1 to 100 µM
C=CC(=O)N1CC[C@@H](c2c(C3=CC[C@H](C(=O)N4CCCC4)CC3)c3c(N)ncnc3n2C)C1 (single isomer, unassigned) [Example 887]	1 to 100 µM	1 to 100 µM
C=CC(=O)N1C[C@H](c2c(-c3ccc(C(=O)N4CCCCC4)cc3)c3c(N)ncnc3n2C)C[C@@H]1C (single isomer, unassigned) [Example 888]	1 to 100 µM	1 to 100 µM
C=C(C)C(=O)Nc1ccc(-c2c(C3=CC[C@@H](C(=O)N4CCC5(CC5)C4)CC3)c3c(N)ncnc3n2C)cc1 (single isomer, unassigned) [Example 891]	1 to 100 µM	1 to 100 µM
C=C(C)C(=O)Nc1ccc(-c2c(C3=CC[C@H](C(=O)N4CCC5(CC5)C4)CC3)c3c(N)ncnc3n2C)cc1 (single isomer, unassigned) [Example 892]	≤ 0.1 µM	0.1 to 0.25 µM
C=C(C)C(=O)Nc1ccc(-c2c(-c3ccc4c(c3)CO[C@@H]4c3cccc(C)n3)c3c(N)ncnc3n2C)cc1 (single isomer, unassigned) [Example 894]	0.25 to 1 µM	0.25 to 1 µM

SMILES	IC50 (SNU-16)	IC50 (FGFR2)
C=C(C)C(=O)Nc1ccc(-c2c(-c3ccc4c(c3)CO[C@H]4c3cccc(C)n3)c3c(N)ncnc3n2C)cc1 (single isomer, unassigned) [Example 896]	0.25 to 1 µM	0.1 to 0.25 µM
Cn1c(-c2ccc(NC(=O)[C@@H]3CN3)cc2)c(-c2ccc(C(=O)N3CCCC3)cc2)c2c(N)ncnc21 (single isomer, unassigned) [Example 899]	1 to 100 µM	1 to 100 µM
Cn1c(-c2ccc(NC(=O)[C@H]3CN3)cc2)c(-c2ccc(C(=O)N3CCCC3)cc2)c2c(N)ncnc21 (single isomer, unassigned) [Example 900]	1 to 100 µM	1 to 100 µM
Cn1c(-c2ccc(NC(=O)CCl)cc2)c(C2=CC[C@H](C(=O)N3CCCC3)CC2)c2c(N)ncnc21 (single isomer, unassigned) [Example 905]	≤ 0.1 µM	0.1 to 0.25 µM
Cn1c(-c2ccc(NC(=O)CCl)cc2)c(C2=CC[C@@H](C(=O)N3CCCC3)CC2)c2c(N)ncnc21 (single isomer, unassigned) [Example 906]	≤ 0.1 µM	< 0.1 µM
Cc1ccnc(Oc2ccc(-c3c(C4=CCN(C(=O)[C@H]5CO5)C4)n(C)c4ncnc(N)c34)cc2)n1 (single isomer, unassigned) [Example 908]	≤ 0.1 µM	0.1 to 0.25 µM
Cc1ccnc(Oc2ccc(-c3c(C4=CCN(C(=O)[C@@H]5CO5)C4)n(C)c4ncnc(N)c34)cc2)n1 (single isomer, unassigned) [Example 909]	1 to 100 µM	1 to 100 µM
C=C(C)C(=O)Nc1ccc(-c2c(C3=CC[C@H](C(=O)N4CCCC45COC5)CC3)c3c(N)ncnc3n2C)cc1 (single isomer, unassigned) [Example 913]	≤ 0.1 µM	< 0.1 µM
C=C(C)C(=O)Nc1ccc(-c2c(C3=CC[C@@H](C(=O)N4CCCC45COC5)CC3)c3c(N)ncnc3n2C)cc1 (single isomer, unassigned) [Example 914]	≤ 0.1 µM	< 0.1 µM
Cc1ccnc(Oc2ccc(-c3c(-c4ccc(OC[C@H]5CO5)cc4)n(C)c4ncnc(N)c34)cc2)n1 (single isomer, unassigned) [Example 917]	0.1 to 0.25 µM	0.1 to 0.25 µM
Cc1ccnc(Oc2ccc(-c3c(-c4ccc(OC[C@@H]5CO5)cc4)n(C)c4ncnc(N)c34)cc2)n1 (single isomer, unassigned) [Example 918]	1 to 100 µM	0.25 to 1 µM
C=C(C)C(=O)Nc1ccc(-c2c(-c3ccc4c(c3)OC[C@@H]4c3cccc(C)n3)c3c(N)ncnc3n2C)cc1 (single isomer, unassigned) [Example 919]	1 to 100 µM	0.1 to 0.25 µM
C=C(C)C(=O)Nc1ccc(-c2c(-c3ccc4c(c3)OC[C@H]4c3cccc(C)n3)c3c(N)ncnc3n2C)cc1 (single isomer, unassigned) [Example 920]	≤ 0.1 µM	< 0.1 µM
C=C(C)C(=O)Nc1ccc(-c2c(N3CC[C@@H](C(=O)N4CCCC4)CC3=O)c3c(N)ncnc3n2C)cc1 (single isomer, unassigned) [Example 925]	≤ 0.1 µM	< 0.1 µM
C=C(C)C(=O)Nc1ccc(-c2c(N3CC[C@H](C(=O)N4CCCC4)CC3=O)c3c(N)ncnc3n2C)cc1 (single isomer, unassigned) [Example 926]	1 to 100 µM	1 to 100 µM
C=CC(=O)N[C@@H]1Cc2ccc(-c3c(-c4ccc(Oc5nccc(C)n5)cc4)c4c(N)ncnc4n3C)cc2C1 (single isomer, unassigned) [Example 927]	1 to 100 µM	1 to 100 µM
C=CC(=O)N[C@H]1Cc2ccc(-c3c(-c4ccc(Oc5nccc(C)n5)cc4)c4c(N)ncnc4n3C)cc2C1 (single isomer, unassigned) [Example 928]	0.25 to 1 µM	0.25 to 1 µM
